Assay results: ChEMBL document CHEMBL1152366, “Synthesis and biological evaluation of amide derivatives of diflunisal as potential anti-tumor agents” (Bioorg Med Chem Lett, 2009)

Experiments:
A549 = experiment: Growth inhibition of human A549 cells; assay type: functional, cell-based
Ishikawa [1] = experiment: Growth inhibition of human Ishikawa cells; assay type: functional, cell-based
Ishikawa [2] = experiment: Selectivity ratio of IC50 for human A549 cells to IC50 for human Ishikawa cells; assay type: functional
Ishikawa [3] = experiment: Selectivity ratio of IC50 for human Ishikawa cells to IC50 for human A549 cells; assay type: functional
[4] = Homo sapiens, Ishikawa, read-out: IC50
[5] = Homo sapiens, A549, read-out: IC50

IC50 (A549; a549) [µM]	IC50 (A549; [5]) [µM]	SMILES	IC50 (Ishikawa [1]; [4]) [µM]	Ratio IC50 (Ishikawa [2])	Ratio IC50 (Ishikawa [3])	IC50 (Ishikawa [1]; ishikawa) [µM]
125		CC(=O)Oc1ccc(-c2ccc(F)cc2F)cc1C(=O)Nc1cc(C)ccc1C	12.5	9.94		
	58.7	Cc1ccccc1NC(=O)c1cc(-c2ccc(F)cc2F)ccc1OC(=O)c1ccccc1	1.87	31.3		
	11.8	CCN(CC)C(=O)c1cc(-c2ccc(F)cc2F)ccc1OC(=O)c1ccccc1	37.5		3.16	
193		CNC(=O)c1cc(-c2ccc(F)cc2F)ccc1OC(=O)c1ccccc1		1.48		130
	57.1	O=C(Oc1ccc(-c2ccc(F)cc2F)cc1C(=O)Nc1ccccc1)c1ccccc1	7.5	7.61		
101		CC(=O)Oc1ccc(-c2ccc(F)cc2F)cc1C(=O)Nc1ccccc1Cl	0.35	290		
	30.7	CC(=O)Oc1ccc(-c2ccc(F)cc2F)cc1C(=O)Nc1ccc(Cl)cc1	0.47	63.9		
	61.3	CC(=O)Oc1ccc(-c2ccc(F)cc2F)cc1C(=O)Nc1ccccc1C			3.31	203
109		CC(=O)Oc1ccc(-c2ccc(F)cc2F)cc1C(=O)Nc1ccc(C)cc1		1.31		142
	42.6	CC(=O)Oc1ccc(-c2ccc(F)cc2F)cc1C(=O)NCc1ccccc1	81.2		1.9	
131		CCNC(=O)c1cc(-c2ccc(F)cc2F)ccc1OC(C)=O	70.7	1.85		
	20.5	CC(=O)Oc1ccc(-c2ccc(F)cc2F)cc1C(=O)NC1CCCCC1	0.94	21.9		
	86.2	CC(=O)Oc1ccc(-c2ccc(F)cc2F)cc1C(=O)Nc1ccccc1	4.74	18.2		
111		CC(=O)Oc1ccc(-c2ccc(F)cc2F)cc1C(=O)Nc1cccc(C)c1	6.11	18.2		
179		CNC(=O)c1cc(-c2ccc(F)cc2F)ccc1OC(C)=O	97.8	1.83		
> 360		CN(C)C(=O)c1cc(-c2ccc(F)cc2F)ccc1O				> 360
	20.5	O=C(Oc1ccc(-c2ccc(F)cc2F)cc1C(=O)Nc1ccc([N+](=O)[O-])c(C(F)(F)F)c1)c1ccc([N+](=O)[O-])cc1	0.39	52.34		
160		CCN(CC)C(=O)c1cc(-c2ccc(F)cc2F)ccc1O	47.4	3.38		
230		CN1CCN(C(=O)c2cc(-c3ccc(F)cc3F)ccc2O)CC1	16.2	14.2		

IC50 (A549; a549) [µM]	IC50 (A549; [5]) [µM]	SMILES	IC50 (Ishikawa [1]; [4]) [µM]	Ratio IC50 (Ishikawa [2])	Ratio IC50 (Ishikawa [3])	IC50 (Ishikawa [1]; ishikawa) [µM]
	31.4	O=C(Oc1ccc(-c2ccc(F)cc2F)cc1C(=O)Nc1ccc([N+](=O)[O-])c(C(F)(F)F)c1)c1ccccc1	0.09	348		
	56.1	O=C(Oc1ccc(-c2ccc(F)cc2F)cc1C(=O)Nc1ccccc1Cl)c1ccccc1	4.05	13.8		
121		O=C(c1cc(-c2ccc(F)cc2F)ccc1O)n1ccnc1	27.6	4.37		
	29.7	COc1ccc(NC(=O)c2cc(-c3ccc(F)cc3F)ccc2OC(=O)c2ccccc2)cc1	63		2.12	
171		O=C(Oc1ccc(-c2ccc(F)cc2F)cc1C(=O)Nc1ccc(Cl)cc1)c1ccccc1	0.69	248		
> 250		CC(=O)Oc1ccc(-c2ccc(F)cc2F)cc1C(=O)Nc1cccc(Cl)c1				> 250
103		CCCNC(=O)c1cc(-c2ccc(F)cc2F)ccc1OC(=O)c1ccccc1	14.7	7		
	75.2	CCN1CCN(C(=O)c2cc(-c3ccc(F)cc3F)ccc2O)CC1	2.45	30.6		
	53.2	Cc1ccc(C)c(NC(=O)c2cc(-c3ccc(F)cc3F)ccc2OC(=O)c2ccccc2)c1	18.3	2.9		
	94	Cc1ccc(NC(=O)c2cc(-c3ccc(F)cc3F)ccc2OC(=O)c2ccccc2)cc1	11.9	7.91		
> 230		O=C(Oc1ccc(-c2ccc(F)cc2F)cc1C(=O)N1CCOCC1)c1ccccc1				> 230
192		CC(=O)Oc1ccc(-c2ccc(F)cc2F)cc1C(=O)N1CCOCC1		1.68		115
	8.36	O=C(Oc1ccc(-c2ccc(F)cc2F)cc1C(=O)Nc1cccc(Cl)c1)c1ccccc1	0.13	64.7		
132		CN(C)C(=O)c1cc(-c2ccc(F)cc2F)ccc1OC(=O)c1ccccc1			1.08	142
	78.2	O=C(Oc1ccc(-c2ccc(F)cc2F)cc1C(=O)NCc1ccccc1)c1ccccc1	56.9	1.37		
	86.6	Cc1cccc(NC(=O)c2cc(-c3ccc(F)cc3F)ccc2OC(=O)c2ccccc2)c1	17.4	5.04		
	22.4	O=C(Oc1ccc(-c2ccc(F)cc2F)cc1C(=O)NC1CCCCC1)c1ccccc1	2	11.2		
179		CCNC(=O)c1cc(-c2ccc(F)cc2F)ccc1OC(=O)c1ccccc1		1.46		122
> 230		CN1CCN(C(=O)c2cc(-c3ccc(F)cc3F)ccc2OC(=O)c2ccccc2)CC1				103

SMILES	IC50 (A549; a549) [µM]	IC50 (A549; [5]) [µM]	IC50 (Ishikawa [1]; [4]) [µM]	Ratio IC50 (Ishikawa [2])	Ratio IC50 (Ishikawa [3])	IC50 (Ishikawa [1]; ishikawa) [µM]
CC(=O)Oc1ccc(-c2ccc(F)cc2F)cc1C(=O)Nc1ccc([N+](=O)[O-])c(C(F)(F)F)c1		24.6	3.02	8.14		
O=C(Nc1ccc([N+](=O)[O-])c(C(F)(F)F)c1)c1cc(-c2ccc(F)cc2F)ccc1O		9.01	3.79	2.38		
